Tested on: 926638-142-R-J1-PDC complex spheroid viability
Experiment: Anticancer human tumor 926638-142-R-J1-PDC patient-derived endometrial carcinoma cell line growth inhibition [POLQ]
Conditions: for IC50: curve of first compound; for viability, T/C: stronger effect = lower value
Method in brief: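 Three-cell-type spheroids modelling solid tumor plus stroma served as the readout system; POL inhibitors were tested individually and in combination, concentration ranges set by clinical Cmax where known.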

[1] = second compound 0.0316 µM, first compound 0.0316 µM
[2] = second compound 0.0316 µM, first compound 0.1 µM
[3] = second compound 0.0316 µM, first compound 0.316 µM
[4] = second compound 0.0316 µM, first compound 1 µM
[5] = second compound 0.0316 µM, first compound 3.16 µM
[6] = second compound 0.0316 µM, first compound 10 µM
[7] = second compound 0.1 µM, first compound 0.0316 µM
[8] = second compound 0.1 µM, first compound 0.1 µM
[9] = second compound 0.1 µM, first compound 0.316 µM
[10] = second compound 0.1 µM, first compound 1 µM
[11] = second compound 0.1 µM, first compound 3.16 µM
[12] = second compound 0.1 µM, first compound 10 µM
[13] = second compound 0.316 µM, first compound 0.0316 µM
[14] = second compound 0.316 µM, first compound 0.1 µM
[15] = second compound 0.316 µM, first compound 0.316 µM
[16] = second compound 0.316 µM, first compound 1 µM
[17] = second compound 0.316 µM, first compound 3.16 µM
[18] = second compound 0.316 µM, first compound 10 µM
[19] = second compound 1 µM, first compound 0.0316 µM
[20] = second compound 1 µM, first compound 0.1 µM
[21] = second compound 1 µM, first compound 0.316 µM
[22] = second compound 1 µM, first compound 1 µM
[23] = second compound 1 µM, first compound 3.16 µM
[24] = second compound 1 µM, first compound 10 µM
[25] = second compound 3.16 µM, first compound 0.0316 µM
[26] = second compound 3.16 µM, first compound 0.1 µM
[27] = second compound 3.16 µM, first compound 0.316 µM
[28] = second compound 3.16 µM, first compound 1 µM
[29] = second compound 3.16 µM, first compound 3.16 µM
[30] = second compound 3.16 µM, first compound 10 µM
[31] = second compound 10 µM, first compound 0.0316 µM
[32] = second compound 10 µM, first compound 0.1 µM
[33] = second compound 10 µM, first compound 0.316 µM
[34] = second compound 10 µM, first compound 1 µM
[35] = second compound 10 µM, first compound 3.16 µM
[36] = second compound 10 µM, first compound 10 µM
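Further: spheroids exposed to drugs for one week before readout.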
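Wherever viability, T/C is given: percent viability relative to DMSO vehicle control wells set as 100%.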

SMILES: C=CC(=O)N1CCN(c2nc(=O)n(-c3c(C)ccnc3C(C)C)c3nc(-c4c(O)cccc4F)c(F)cc23)C(C)C1 (stereo unspecified) + COC1C(OC(N)=O)C(O)C(Oc2ccc3c(O)c(NC(=O)c4ccc(O)c(CC=C(C)C)c4)c(=O)oc3c2C)OC1(C)C
- IC50 (second compound 0.0316 µM): > 10000 nM
- IC50 (second compound 0.1 µM): > 10000 nM
- IC50 (second compound 0.316 µM): > 10000 nM
- IC50 (second compound 1 µM): > 10000 nM
- IC50 (second compound 3.16 µM): > 10000 nM
- IC50 (second compound 10 µM): 8270 nM
- viability, T/C [1]: 83.3%
- viability, T/C [2]: 95.4%
- viability, T/C [3]: 76.5%
- viability, T/C [4]: 86.8%
- viability, T/C [5]: 64.2%
- viability, T/C [6]: 52.5%
- viability, T/C [7]: 92.6%
- viability, T/C [8]: 91.6%
- viability, T/C [9]: 85.1%
- viability, T/C [10]: 80.8%
- viability, T/C [11]: 80.1%
- viability, T/C [12]: 65.6%
- viability, T/C [13]: 101%
- viability, T/C [14]: 96.2%
- viability, T/C [15]: 87.3%
- viability, T/C [16]: 85.8%
- viability, T/C [17]: 68.5%
- viability, T/C [18]: 53.6%
- viability, T/C [19]: 81.3%
- viability, T/C [20]: 87.9%
- viability, T/C [21]: 77.1%
- viability, T/C [22]: 80.9%
- viability, T/C [23]: 77.2%
- viability, T/C [24]: 59.4%
- viability, T/C [25]: 74.1%
- viability, T/C [26]: 87.7%
- viability, T/C [27]: 77.4%
- viability, T/C [28]: 75.7%
- viability, T/C [29]: 74.5%
- viability, T/C [30]: 56.5%
- viability, T/C [31]: 77.4%
- viability, T/C [32]: 96%
- viability, T/C [33]: 103%
- viability, T/C [34]: 73.6%
- viability, T/C [35]: 76.1%
- viability, T/C [36]: 45.1%

SMILES: CC1COCCN1c1cc(-c2ccnn2C)c2ccnc(-c3ccn[nH]3)c2n1 (stereo unspecified) + COC1C(OC(N)=O)C(O)C(Oc2ccc3c(O)c(NC(=O)c4ccc(O)c(CC=C(C)C)c4)c(=O)oc3c2C)OC1(C)C
- IC50 (second compound 0.0316 µM): 455 nM
- IC50 (second compound 0.1 µM): 403 nM
- IC50 (second compound 0.316 µM): 517 nM
- IC50 (second compound 1 µM): 531 nM
- IC50 (second compound 3.16 µM): 493 nM
- IC50 (second compound 10 µM): 558 nM
- viability, T/C [1]: 111%
- viability, T/C [2]: 89.4%
- viability, T/C [3]: 58.2%
- viability, T/C [4]: 32.8%
- viability, T/C [5]: 12.9%
- viability, T/C [6]: 9.13%
- viability, T/C [7]: 89.4%
- viability, T/C [8]: 81.5%
- viability, T/C [9]: 53.2%
- viability, T/C [10]: 30.9%
- viability, T/C [11]: 11.5%
- viability, T/C [12]: 7.32%
- viability, T/C [13]: 107%
- viability, T/C [14]: 91.6%
- viability, T/C [15]: 68.8%
- viability, T/C [16]: 25.9%
- viability, T/C [17]: 13.6%
- viability, T/C [18]: 7.15%
- viability, T/C [19]: 96.3%
- viability, T/C [20]: 92.5%
- viability, T/C [21]: 67.6%
- viability, T/C [22]: 28.3%
- viability, T/C [23]: 11.3%
- viability, T/C [24]: 7.92%
- viability, T/C [25]: 90.6%
- viability, T/C [26]: 80.3%
- viability, T/C [27]: 64.5%
- viability, T/C [28]: 28.3%
- viability, T/C [29]: 15.1%
- viability, T/C [30]: 8.17%
- viability, T/C [31]: 91.5%
- viability, T/C [32]: 87.6%
- viability, T/C [33]: 66.8%
- viability, T/C [34]: 32.6%
- viability, T/C [35]: 13.8%
- viability, T/C [36]: 9.27%

SMILES: CCc1cc2c(N3CCc4c(cc(Cn5ccnc5)cc4-c4cn(C)nc4C(F)(F)F)C3=O)cc(C)nc2c(OC)n1 + COC1C(OC(N)=O)C(O)C(Oc2ccc3c(O)c(NC(=O)c4ccc(O)c(CC=C(C)C)c4)c(=O)oc3c2C)OC1(C)C
- IC50 (second compound 0.0316 µM): 400 nM
- IC50 (second compound 0.1 µM): 277 nM
- IC50 (second compound 0.316 µM): 313 nM
- IC50 (second compound 1 µM): 214 nM
- IC50 (second compound 3.16 µM): 244 nM
- IC50 (second compound 10 µM): 667 nM
- viability, T/C [1]: 79.3%
- viability, T/C [2]: 65.2%
- viability, T/C [3]: 49.6%
- viability, T/C [4]: 42.6%
- viability, T/C [5]: 33.4%
- viability, T/C [6]: 23.4%
- viability, T/C [7]: 72.5%
- viability, T/C [8]: 73%
- viability, T/C [9]: 46.9%
- viability, T/C [10]: 27.6%
- viability, T/C [11]: 26%
- viability, T/C [12]: 23.8%
- viability, T/C [13]: 68%
- viability, T/C [14]: 52%
- viability, T/C [15]: 52.7%
- viability, T/C [16]: 43.6%
- viability, T/C [17]: 31.1%
- viability, T/C [18]: 23.5%
- viability, T/C [19]: 88.8%
- viability, T/C [20]: 60.7%
- viability, T/C [21]: 46.9%
- viability, T/C [22]: 31.2%
- viability, T/C [23]: 28.8%
- viability, T/C [24]: 28.9%
- viability, T/C [25]: 60.1%
- viability, T/C [26]: 58.4%
- viability, T/C [27]: 47.1%
- viability, T/C [28]: 35.8%
- viability, T/C [29]: 27.6%
- viability, T/C [30]: 21.6%
- viability, T/C [31]: 66.9%
- viability, T/C [32]: 65.8%
- viability, T/C [33]: 62.3%
- viability, T/C [34]: 43.1%
- viability, T/C [35]: 29.7%
- viability, T/C [36]: 25%

— PubChem BioAssay AID1963826 (Molecular Pharmacology Branch, DTP, NCI, 2024)
